Read-outs that look alike come from different tables or passages of the source. Bounds are passed on as bounds.

The target in one assay is T1, IGF-1R (Homo sapiens, UniProt P08069).
T1 construct: purchased Millipore 14-802
The assay can be described thus: In vitro IGF-1R enzymatic assay (ADP-Glo kinase assay). The settings on record: activated IGF-1R; for inhibition at 1 µM: in duplicate, read-out: inhibition of binding; for inhibition at 0.03 µM: 30 nM. It counts as biochemical. How it is done: (§1) IC50 values of the compounds of the invention against IGF-1R and IR were measured in vitro using an ADP-Glo kinase assay Kit (Promega). […] Kinase reactions in both assays were conducted at 30° C. for 20 min with increasing concentrations of compounds of the invention.
Additional compounds of the invention were screened against activated IGF-1R.
A general note: ADP-Glo first removes unused ATP, then detects ADP through luciferase.

The target in the next assay is Trk A (Homo sapiens, UniProt P04629). Kind of assay: HotSpot kinase assay: Trk A. It counts as biochemical. Particulars: 100 nM compound; for inhibition at 0.1 µM: read-out: % Enzyme Inhibition @ 100 nM Trk A. On the procedure: Kinase assays were performed using additional compounds against a panel of 3 kinases: Trk A; Trk B; and Trk C. Each compound was tested at a concentration of 0.1 μM in single duplicate mode against the 3 kinases. Compounds were prepared as 10 mM stock solutions in DMSO prior to use in the assay. […] IC50 values and curve fits were obtained using Prism (GraphPad Software). […]
Chain of Trk A (P04629 33-796): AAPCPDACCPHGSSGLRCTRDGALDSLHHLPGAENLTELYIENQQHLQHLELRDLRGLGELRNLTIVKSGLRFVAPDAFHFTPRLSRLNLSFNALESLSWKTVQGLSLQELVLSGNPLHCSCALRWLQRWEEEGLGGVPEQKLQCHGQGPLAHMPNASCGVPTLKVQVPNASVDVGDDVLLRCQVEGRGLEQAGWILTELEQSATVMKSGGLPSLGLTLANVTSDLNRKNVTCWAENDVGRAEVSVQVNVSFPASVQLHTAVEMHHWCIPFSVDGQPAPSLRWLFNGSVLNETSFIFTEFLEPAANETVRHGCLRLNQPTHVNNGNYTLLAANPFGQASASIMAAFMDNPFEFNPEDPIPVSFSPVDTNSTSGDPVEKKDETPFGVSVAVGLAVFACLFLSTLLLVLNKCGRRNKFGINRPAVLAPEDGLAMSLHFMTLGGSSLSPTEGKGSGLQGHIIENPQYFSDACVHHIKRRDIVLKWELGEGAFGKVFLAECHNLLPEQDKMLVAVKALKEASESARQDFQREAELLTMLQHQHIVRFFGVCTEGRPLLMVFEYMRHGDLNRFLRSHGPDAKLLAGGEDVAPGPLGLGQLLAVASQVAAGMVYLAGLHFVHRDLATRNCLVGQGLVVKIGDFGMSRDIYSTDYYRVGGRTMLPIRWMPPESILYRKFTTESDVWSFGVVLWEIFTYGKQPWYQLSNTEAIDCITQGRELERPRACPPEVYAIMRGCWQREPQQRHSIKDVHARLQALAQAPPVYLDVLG
The screening was performed using the “HotSpot” assay platform. The assay measures the conversion of a peptide substrate to ^33P-labelled phosphorylated product. Briefly, specific kinase/substrate pairs along with required cofactors were prepared in reaction buffer. Specifically, the substrate was prepared in reaction buffer (20 mM Hepes, pH 7.5; 10 mM MgCl2; 1 mM EGTA; 0.02% Brij35; 0.02 mg/mL BSA; 0.1 mM Na3VO4; 2 mM DTT; 1% DMSO), followed by delivery of any required cofactor to the resulting substrate solution. The corresponding kinase was delivered into the substrate solution and the reaction mixture was mixed gently. Compound was delivered into the reaction mixture, followed 15-20 minutes later by addition of a mixture of ATP (Sigma, St. Louis Mo.) and ^33P ATP (specific activity 0.01 μCi/μL final; Perkin Elmer, Waltham, Mass.) to a final concentration of 10 μM-30 μM to initiate the reaction. Reactions were carried out at room temperature for 120 minutes, followed by spotting of the reactions onto P81 ion exchange filter paper (Whatman #3698-915; Whatman Inc., Piscataway, N.J.). Unbound phosphate was removed by extensive washing of filters in 0.75% phosphoric acid. […] The percent of enzyme inhibition was calculated based on the percent of remaining kinase activity.

The next assay concerns the target Trk B (Homo sapiens, UniProt Q16620). Kind of assay: HotSpot kinase assay: Trk B. The settings on record: 100 nM compound; for inhibition at 0.1 µM: read-out: % Enzyme Inhibition @ 100 nM Trk B. Format: biochemical. How it is done:
(§2) Each compound was tested at a concentration of 0.1 μM in single duplicate mode against the 3 kinases. Compounds were prepared as 10 mM stock solutions in DMSO prior to use in the assay. […] IC50 values and curve fits were obtained using Prism (GraphPad Software).
(§3) The screening was performed using the “HotSpot” assay platform. The assay measures the conversion of a peptide substrate to ^33P-labelled phosphorylated product. Briefly, specific kinase/substrate pairs along with required cofactors were prepared in reaction buffer. Specifically, the substrate was prepared in reaction buffer (20 mM Hepes, pH 7.5; 10 mM MgCl2; 1 mM EGTA; 0.02% Brij35; 0.02 mg/mL BSA; 0.1 mM Na3VO4; 2 mM DTT; 1% DMSO), followed by delivery of any required cofactor to the resulting substrate solution. The corresponding kinase was delivered into the substrate solution and the reaction mixture was mixed gently. Compound was delivered into the reaction mixture, followed 15-20 minutes later by addition of a mixture of ATP (Sigma, St. Louis Mo.) and ^33P ATP (specific activity 0.01 μCi/μL final; Perkin Elmer, Waltham, Mass.) to a final concentration of 10 μM-30 μM to initiate the reaction. […] The percent of enzyme inhibition was calculated based on the percent of remaining kinase activity.

For another assay, the target named is Trk C (Homo sapiens, UniProt Q16288). The assay can be described thus: HotSpot kinase assay: Trk C. It counts as biochemical. Particulars: 100 nM compound, HotSpot; for inhibition at 0.1 µM: read-out: % Enzyme Inhibition @ 100 nM Trk C. On the procedure: as §2, §3
Chain of Trk C (Q16288 32-839): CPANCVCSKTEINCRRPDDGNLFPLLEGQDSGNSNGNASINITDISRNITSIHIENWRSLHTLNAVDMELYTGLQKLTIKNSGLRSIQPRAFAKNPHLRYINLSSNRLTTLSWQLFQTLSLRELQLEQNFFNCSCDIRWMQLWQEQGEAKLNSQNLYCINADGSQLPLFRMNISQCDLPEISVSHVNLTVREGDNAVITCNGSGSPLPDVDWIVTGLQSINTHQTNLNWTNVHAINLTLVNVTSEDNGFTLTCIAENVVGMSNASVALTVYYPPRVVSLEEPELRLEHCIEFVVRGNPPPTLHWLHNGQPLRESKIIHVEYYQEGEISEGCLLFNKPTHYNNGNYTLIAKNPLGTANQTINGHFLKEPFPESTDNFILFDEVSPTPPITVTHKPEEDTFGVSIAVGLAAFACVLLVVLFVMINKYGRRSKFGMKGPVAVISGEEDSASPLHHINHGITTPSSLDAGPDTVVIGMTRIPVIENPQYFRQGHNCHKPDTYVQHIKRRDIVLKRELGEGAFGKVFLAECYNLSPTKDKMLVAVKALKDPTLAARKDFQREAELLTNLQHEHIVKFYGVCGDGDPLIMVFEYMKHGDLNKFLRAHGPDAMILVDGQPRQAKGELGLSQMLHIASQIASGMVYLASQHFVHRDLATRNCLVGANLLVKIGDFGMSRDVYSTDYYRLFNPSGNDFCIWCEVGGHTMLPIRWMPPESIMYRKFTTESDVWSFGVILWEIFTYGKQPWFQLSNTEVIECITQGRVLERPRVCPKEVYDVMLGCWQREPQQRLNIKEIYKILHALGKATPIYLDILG
Kinase assays were performed using additional compounds against a panel of 4 kinases: AXL; c-Met; c-Mer; and Trk C. Each compound was tested at a concentration of […] in single duplicate mode against the 4 kinases. Compounds were prepared as 10 mM stock solutions in DMSO prior to use in the assay. […] IC50 values and curve fits were obtained using Prism (GraphPad Software).

The target of assay [1] is T2, IR (Homo sapiens, UniProt P06213).
T2 construct: purchased Millipore 14-803
T2 sequence (P06213 28-1382): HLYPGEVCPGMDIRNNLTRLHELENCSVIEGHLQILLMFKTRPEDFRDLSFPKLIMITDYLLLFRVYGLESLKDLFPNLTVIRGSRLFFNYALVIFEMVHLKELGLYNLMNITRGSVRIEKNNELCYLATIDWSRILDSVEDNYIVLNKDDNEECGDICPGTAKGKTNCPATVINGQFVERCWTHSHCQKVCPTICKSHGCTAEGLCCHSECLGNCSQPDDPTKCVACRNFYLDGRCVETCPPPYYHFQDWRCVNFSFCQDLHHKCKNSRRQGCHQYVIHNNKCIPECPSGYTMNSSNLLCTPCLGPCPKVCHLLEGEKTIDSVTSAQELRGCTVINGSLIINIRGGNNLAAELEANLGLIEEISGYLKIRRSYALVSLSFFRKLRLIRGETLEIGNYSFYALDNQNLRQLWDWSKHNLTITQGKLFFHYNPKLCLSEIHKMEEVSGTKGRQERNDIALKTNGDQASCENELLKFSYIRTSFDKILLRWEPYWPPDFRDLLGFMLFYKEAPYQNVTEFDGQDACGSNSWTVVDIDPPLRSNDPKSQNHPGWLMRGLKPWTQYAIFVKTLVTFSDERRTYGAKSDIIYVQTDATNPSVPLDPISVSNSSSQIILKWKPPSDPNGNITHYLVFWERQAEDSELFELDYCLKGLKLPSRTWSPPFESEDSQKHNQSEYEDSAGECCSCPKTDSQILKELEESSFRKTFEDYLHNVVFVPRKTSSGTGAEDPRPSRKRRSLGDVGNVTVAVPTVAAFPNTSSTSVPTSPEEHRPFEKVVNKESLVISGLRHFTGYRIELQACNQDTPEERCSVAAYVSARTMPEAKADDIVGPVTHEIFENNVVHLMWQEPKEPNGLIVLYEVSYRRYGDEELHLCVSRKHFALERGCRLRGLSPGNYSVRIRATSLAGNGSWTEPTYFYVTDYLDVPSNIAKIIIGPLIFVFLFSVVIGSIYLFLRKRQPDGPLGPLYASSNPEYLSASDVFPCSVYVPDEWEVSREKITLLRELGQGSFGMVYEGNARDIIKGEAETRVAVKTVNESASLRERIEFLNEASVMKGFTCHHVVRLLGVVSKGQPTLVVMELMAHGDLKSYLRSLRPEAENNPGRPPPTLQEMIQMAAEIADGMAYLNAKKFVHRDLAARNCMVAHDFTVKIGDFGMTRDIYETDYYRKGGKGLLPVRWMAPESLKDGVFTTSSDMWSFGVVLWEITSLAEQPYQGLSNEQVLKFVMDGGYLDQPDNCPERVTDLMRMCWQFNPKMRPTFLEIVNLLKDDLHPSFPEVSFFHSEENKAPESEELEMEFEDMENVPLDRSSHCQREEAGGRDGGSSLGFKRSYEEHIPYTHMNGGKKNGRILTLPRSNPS
The assay can be described thus: In vitro IR enzymatic assay (ADP-Glo kinase assay). It counts as biochemical. Particulars: activated IR, in duplicate, read-out: inhibition of binding.

Assay [2] has as its system Akt phosphorylation induced by IGF-1R. The assay can be described thus: Western blot analysis of Akt phosphorylation induced by IGF-1 in HT-29 cells. It counts as cell-based, Human. The settings on record: for Levels of phosphorylated AKT in treated cells (pAKT/actin): HT-29 cells, IGF-1; for p-AKT relative to levels with 0.1 nM compound: Table B2 lower part; for Normalized phosphorylated AKT (relative to actin) levels relative to 0.1 nM compound treatment: Table B2 upper part; for pAKT relative to 0.1 nM compound: derivatives of Cpd. No. 8b. In short, it runs like this: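 Phospho-Akt assessed by western blot in serum-depleted (24 h) human colon carcinoma HT-29 cells. Compounds applied for 2 h at 0.1–100 (0.1, 1, 10, 100); vehicle DMSO and 10 ng/mL IGF-1 served as controls. Protein in cleared lysates measured by BCA assay.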
For orientation: Immunoblotting shows a protein as a band on a membrane.

The target of assay [3] is T2, IR. The assay can be described thus: In vitro IR enzymatic assay (ADP-Glo kinase assay). It counts as biochemical. Particulars: activated IR, 30 nM. On the procedure: as §1
Additional compounds of the invention were screened against activated IR.

Setting [4] is: N1, read-out: % Inh @ 30 nM (N1).
The mark [5] stands for this setting: N2, read-out: % Inh @ 30 nM (N2).
Setting [6] is: average, read-out: % Inh @ 30 nM Avg.

T1 sequence (P08069 31-1367): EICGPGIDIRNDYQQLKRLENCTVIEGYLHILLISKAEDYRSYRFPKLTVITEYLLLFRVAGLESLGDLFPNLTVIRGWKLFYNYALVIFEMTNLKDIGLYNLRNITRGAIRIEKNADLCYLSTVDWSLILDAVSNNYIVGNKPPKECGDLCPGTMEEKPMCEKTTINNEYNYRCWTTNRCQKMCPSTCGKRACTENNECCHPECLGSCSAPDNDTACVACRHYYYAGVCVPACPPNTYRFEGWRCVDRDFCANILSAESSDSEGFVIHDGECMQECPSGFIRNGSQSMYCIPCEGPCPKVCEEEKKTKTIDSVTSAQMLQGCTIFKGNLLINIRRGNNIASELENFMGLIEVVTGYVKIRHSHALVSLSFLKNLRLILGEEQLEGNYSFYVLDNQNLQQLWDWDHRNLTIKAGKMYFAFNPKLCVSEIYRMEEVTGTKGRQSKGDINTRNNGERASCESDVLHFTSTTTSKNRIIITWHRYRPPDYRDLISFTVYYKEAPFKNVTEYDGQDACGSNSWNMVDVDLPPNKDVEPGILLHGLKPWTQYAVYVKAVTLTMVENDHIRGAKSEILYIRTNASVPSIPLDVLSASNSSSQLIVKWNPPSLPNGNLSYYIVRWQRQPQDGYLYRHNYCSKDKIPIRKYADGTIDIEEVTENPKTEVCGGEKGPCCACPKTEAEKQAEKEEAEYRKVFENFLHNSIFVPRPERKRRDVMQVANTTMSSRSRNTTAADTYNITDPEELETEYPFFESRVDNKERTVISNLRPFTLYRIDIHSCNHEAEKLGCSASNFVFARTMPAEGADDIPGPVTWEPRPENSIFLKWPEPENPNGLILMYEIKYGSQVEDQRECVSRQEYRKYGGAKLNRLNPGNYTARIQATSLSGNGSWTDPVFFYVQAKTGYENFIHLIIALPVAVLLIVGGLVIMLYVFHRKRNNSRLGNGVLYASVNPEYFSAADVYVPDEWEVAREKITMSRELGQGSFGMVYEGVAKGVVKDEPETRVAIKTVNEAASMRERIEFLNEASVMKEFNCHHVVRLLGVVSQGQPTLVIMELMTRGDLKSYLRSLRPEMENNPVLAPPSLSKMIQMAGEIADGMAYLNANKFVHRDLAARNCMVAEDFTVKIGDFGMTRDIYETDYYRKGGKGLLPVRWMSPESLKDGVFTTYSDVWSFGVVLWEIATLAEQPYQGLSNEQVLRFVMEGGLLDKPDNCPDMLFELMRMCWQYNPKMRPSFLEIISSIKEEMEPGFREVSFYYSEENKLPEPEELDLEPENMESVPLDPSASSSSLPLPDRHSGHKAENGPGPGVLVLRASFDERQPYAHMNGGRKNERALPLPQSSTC
Chain of Trk B (Q16620 32-822): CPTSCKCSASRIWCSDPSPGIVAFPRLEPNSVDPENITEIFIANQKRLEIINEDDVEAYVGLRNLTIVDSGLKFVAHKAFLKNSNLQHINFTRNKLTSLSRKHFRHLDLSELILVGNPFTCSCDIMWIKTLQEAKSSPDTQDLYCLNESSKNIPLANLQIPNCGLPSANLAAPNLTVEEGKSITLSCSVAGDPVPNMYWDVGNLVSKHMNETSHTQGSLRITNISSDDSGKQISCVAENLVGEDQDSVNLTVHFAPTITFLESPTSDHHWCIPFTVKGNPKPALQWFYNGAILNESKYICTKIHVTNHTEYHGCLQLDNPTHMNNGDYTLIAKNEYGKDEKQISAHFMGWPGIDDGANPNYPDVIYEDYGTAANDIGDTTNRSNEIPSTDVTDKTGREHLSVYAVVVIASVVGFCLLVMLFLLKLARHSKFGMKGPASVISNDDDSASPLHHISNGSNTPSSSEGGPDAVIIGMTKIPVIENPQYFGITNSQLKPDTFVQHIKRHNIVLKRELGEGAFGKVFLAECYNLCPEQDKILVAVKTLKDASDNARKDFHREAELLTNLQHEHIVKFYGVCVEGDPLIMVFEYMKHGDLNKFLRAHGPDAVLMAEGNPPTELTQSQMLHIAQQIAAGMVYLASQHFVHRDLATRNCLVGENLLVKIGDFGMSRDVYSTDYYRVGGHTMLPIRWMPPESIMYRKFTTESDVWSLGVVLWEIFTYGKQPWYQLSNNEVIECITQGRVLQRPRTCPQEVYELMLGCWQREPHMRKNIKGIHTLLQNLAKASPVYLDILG

Turning to `CC(C)c1cc(Nc2nc(N3CC(O)CC3C(=O)N3CCCCC3)nc3c2CCC3)n[nH]1` (stereo not shown) [Compound 107a, (4-hydroxy-1-(4-(5-isopropyl-1H-pyrazol-3-ylamino)-6,7-dihydro-5H-cyclopenta[d]pyrimidin-2-yl)pyrrolidin-2-yl)(piperidin-1-yl)methanone], the values for the inhibition at 1 µM at IGF-1R and on IR [1] were < 35% and ≤ 40%, respectively. Further, the “% Enzyme Inhibition @ 100 nM Trk A” value at Trk A is listed as “+ (Low (39% or lower inhibition, +))”. For the same compound, the “% Enzyme Inhibition @ 100 nM Trk B” value at Trk B is reported as “++ (Medium (40 to 59% inhibition, ++))”. The “% Enzyme Inhibition @ 100 nM Trk C” value at Trk C is listed as “+++ (High (60% or higher inhibition, +++))”.

Regarding `O=C(C1CC(O)CN1c1nc2c(c(Nc3cc(C4CCCC4)[nH]n3)n1)CCC2)N1CCCCC1` (stereo not shown) [Compound 108b, (1-(4-(5-cyclopentyl-1H-pyrazol-3-ylamino)-6,7-dihydro-5H-cyclopenta[d]pyrimidin-2-yl)-4-hydroxypyrrolidin-2-yl)(piperidin-1-yl)methanone], the inhibition at 0.1 µM on Trk A was 40 to 59%; at Trk B it was 40 to 59%; on Trk C, > 60%.

`CC(C)c1cc(Nc2nc(N3CC(O)CC3C(=O)N3CCCCC3)nc3c2CCC3)n[nH]1` (stereo not shown) [Compound 107b, (4-hydroxy-1-(4-(5-isopropyl-1H-pyrazol-3-ylamino)-6,7-dihydro-5H-cyclopenta[d]pyrimidin-2-yl)pyrrolidin-2-yl)(piperidin-1-yl)methanone]: the inhibition at 0.1 µM on Trk A and at Trk B was < 39% throughout. Further, the “% Enzyme Inhibition @ 100 nM Trk C” value at Trk C was “+ (Low (39% or lower inhibition, +))”.

For `CN(C)C(=O)C1CC(O)CN1c1nc2c(c(Nc3cc(C4CCCC4)[nH]n3)n1)CCC2` (stereo not shown) [Compound 110a, 1-(4-(5-cyclopentyl-1H-pyrazol-3-ylamino)-6,7-dihydro-5H-cyclopenta[d]pyrimidin-2-yl)-4-hydroxy-N,N-dimethylpyrrolidine-2-carboxamide], the values for the inhibition at 1 µM on IGF-1R and at IR [1] were < 35% and ≤ 40%, respectively. In addition, the “% Enzyme Inhibition @ 100 nM Trk A” value on Trk A is “+ (Low (39% or lower inhibition, +))”. For the same compound, the “% Enzyme Inhibition @ 100 nM Trk B” value on Trk B is “++ (Medium (40 to 59% inhibition, ++))”. Also, the “% Enzyme Inhibition @ 100 nM Trk C” value on Trk C is “+++ (High (60% or higher inhibition, +++))”.

In the case of `CN(C)C(=O)C1CCCN1c1nc2c(c(Nc3cc(C4CCCCC4)[nH]n3)n1)CCC2` (stereo not shown) [Compound 114a, 1-(4-(5-cyclohexyl-1H-pyrazol-3-ylamino)-6,7-dihydro-5H-cyclopenta[d]pyrimidin-2-yl)-N,N-dimethylpyrrolidine-2-carboxamide], the figures for the inhibition at 1 µM on IGF-1R and at IR [1] were < 35% and ≤ 40%, respectively. The “% Enzyme Inhibition @ 100 nM Trk A” value at Trk A was “++ (Medium (40 to 59% inhibition, ++))”. For the same compound, at Trk B, the “% Enzyme Inhibition @ 100 nM Trk B” value was “++ (Medium (40 to 59% inhibition, ++))”. On Trk C, the “% Enzyme Inhibition @ 100 nM Trk C” value is on record as “++ (Medium (40 to 59% inhibition, ++))”.

Regarding `O=C(C1CCCN1c1nc2c(c(Nc3cc(C4CCCCC4)[nH]n3)n1)CCC2)N1CCCCC1` (stereo not shown) [Compound 113b, (1-(4-(5-cyclohexyl-1H-pyrazol-3-ylamino)-6,7-dihydro-5H-cyclopenta[d]pyrimidin-2-yl)pyrrolidin-2-yl)(piperidin-1-yl)methanone], the inhibition at 0.1 µM was 40 to 59% at Trk A and > 60% at Trk C. Further, the “% Enzyme Inhibition @ 100 nM Trk B” value on Trk B is recorded as “+++ (High (60% or higher inhibition, +++))”.

Take `CN(C)C(=O)C1CC(O)CN1c1nc2c(c(Nc3cc(C4CCCC4)[nH]n3)n1)CCC2` (stereo not shown) [Compound 110b, 1-(4-(5-cyclopentyl-1H-pyrazol-3-ylamino)-6,7-dihydro-5H-cyclopenta[d]pyrimidin-2-yl)-4-hydroxy-N,N-dimethylpyrrolidine-2-carboxamide]: the results for the inhibition at 0.1 µM at Trk A, at Trk B and at Trk C were < 39%, < 39% and 40 to 59%, respectively.

Regarding `CN(C)C(=O)C1CCCN1c1nc2c(c(Nc3cc(C4CCCCC4)[nH]n3)n1)CCC2` (stereo not shown) [Compound 114b, 1-(4-(5-cyclohexyl-1H-pyrazol-3-ylamino)-6,7-dihydro-5H-cyclopenta[d]pyrimidin-2-yl)-N,N-dimethylpyrrolidine-2-carboxamide], the inhibition at 0.1 µM at Trk A was < 39%; at Trk B it was > 60%; at Trk C it was > 60%.

Turning to `CC(C)c1cc(Nc2nc(N3CCCC3C(=O)Nc3ccc(F)nc3)nc3c2CCCC3)n[nH]1` (single isomer, unassigned) [Compound 13b, N-(6-fluoropyridin-3-yl)-1-(4-(5-isopropyl-1H-pyrazol-3-ylamino)-5,6,7,8-tetrahydroquinazolin-2-yl)pyrrolidine-2-carboxamide], the “Levels of phosphorylated AKT in treated cells (pAKT/actin)” value in assay [2] (0.1 nM compound) is reported as 0.22; in assay [2] (1 nM compound), 0.09; in assay [2] (10 nM compound) it was 0.00; in assay [2] (100 nM compound) it was 0.00. For the same compound, the “p-AKT relative to levels with 0.1 nM compound” value in assay [2] (0.1 nM) amounted to 1.0; in assay [2] (1 nM), 0.4; in assay [2] (10 nM), 0.0; in assay [2] (100 nM) it was 0.0. Further, the “Normalized phosphorylated AKT (relative to actin) levels relative to 0.1 nM compound treatment” value is 1.0 in assay [2] (0.1 nM), 0.4 in assay [2] (1 nM), 0.0 in assay [2] (10 nM) and 0.0 in assay [2] (100 nM). Moreover, the “pAKT relative to 0.1 nM compound” value in assay [2] (0.1 nM) stood at 1.00; in assay [2] (1 nM), 0.49; in assay [2] (10 nM), 0.04; in assay [2] (100 nM), 0.02. Moreover, the inhibition at 0.03 µM at IGF-1R (setting [4]) stood at 82%; at IGF-1R (setting [5]) it was 80%; on IGF-1R (setting [6]), 81%; at IR [3] (setting [4]), 84%; at IR [3] (setting [5]), 80%; on IR [3] (setting [6]) it was 82%.

These data come from US9499519B2, “Fused pyrimidine compounds and use thereof” (Medivation Technologies, Inc., priority 2012, dated 2016).
